Data on nine compounds can be found in US4843087A (priority 1986, dated 1989).

In brackets after ≈: the same amount, converted by molar mass. Read-outs that look alike come from different tables or passages of the source.

One data set deals with Polio 2. Kind of data set: microbe, parasite or virus in culture. The class given is cell-based, poliovirus. Conditions: Enterovirus C, HeLa, read-out: Polio 2 MIC.
The subject of data set [1] is human rhinovirus (HRV) serotypes. Kind of data set: microbe, parasite or virus in culture. The class given is cell-based. The following applies: for MIC50: read-out: Rhinovirus MIC50.
The nature of data set [2]: blood plasma concentration in dogs after oral administration. Conditions: dog, beagle dogs, fasted, oral 25 mg/kg in corn oil, up to six hours. The class given is in vivo. How it is done:
The blood plasma concentrations of the compounds of the invention were measured in beagle dogs by the following procedure: Animals ranging in weight from 8.5 to 11.5 kg were fasted overnight prior to oral administration of 25 mg/kg of the test compound dissolved in corn oil (125 mg/ml) and contained in gelatin capsules. Blood samples were collected at selected time intervals up to six hours post-medication and analyzed by standard chromatographic procedures to determine the mean maximum concentration of the test compound in micrograms per milliliter [Mean Cmax, μg/ml].

The subject of data set [3] is poliovirus, type 2, MEF strain. As to the kind of experiment: animal or person. The class given is in vivo, white Swiss mice. Conditions: Enterovirus C, in Mus musculus, po, 336 h, read-out: Survivors Day 14 Post Infection.
The test system of the next data set is enteroviruses. As to the kind of experiment: microbe, parasite or virus in culture. The class given is cell-based. Conditions: Enterovirus, read-out: MIC80.
In a further data set the test system is echovirus-9. As to the kind of experiment: in vivo efficacy in echovirus-9 mouse infection model.
In a further data set the test system is coxsackie virus A-9. Kind of data set: in vivo efficacy in coxsackie virus A-9 mouse infection model.

On to `Cc1cc(CCCCCOc2c(Cl)cc(C3=NC(C)CO3)cc2Cl)on1` (centres unmarked) [Example 107, 5-{5-[2,6-Dichloro-4-(4,5-dihydro-4-methyl-2-oxazolyl)phenoxy]pentyl}-3-methylisoxazole], for which, in the data set on Polio 2, the MIC was determined as 4.6 µg/mL (≈ 11.6 µM). Moreover, the MIC50 in data set [1] turned out to be 0.12 µg/mL (≈ 0.302 µM). The IC (MIC80 of serotype panel) in data set [1] (read-out: Rhinovirus MIC80) turned out to be 0.37 µg/mL. In data set [2], this compound yielded a Cmax of 1530 ± 140 ng/mL.

As to `Cc1cc(CCCCCOc2c(C)cc(C3=NCCO3)cc2C)on1` [Example 58, 5-{5-[4-(4,5-Dihydro-2-oxazolyl)-2,6-dimethylphenoxy]pentyl}-3-methylisoxazole], the MIC in the data set on Polio 2 came to 3.1 µg/mL (≈ 9.05 µM). For the same compound, the MIC50 in data set [1] amounted to 0.15 µg/mL (≈ 0.438 µM). Also, the IC (MIC80 of serotype panel) in data set [1] (read-out: Rhinovirus MIC80) is 0.43 µg/mL. This compound came in with a Cmax in data set [2] of 4260 ± 470 ng/mL.

For the compound `Cc1cc(CCCCCCOc2c(Cl)cc(C3=NCCO3)cc2Cl)on1` [Example 106, 5-{6-[2,6-Dichloro-4-(4,5-dihydro-2-oxazolyl)phenoxy]hexyl}-3-methylisoxazole], in the data set with Polio 2, the MIC worked out at 0.58 µg/mL (≈ 1.46 µM). Moreover, the MIC50 in data set [1] came out at 0.18 µg/mL (≈ 0.453 µM). Besides, in data set [1] (read-out: Rhinovirus MIC80), the IC (MIC80 of serotype panel) turned out to be 0.41 µg/mL. In data set [2], the Cmax was 1530 ± 150 ng/mL.

Turning to `Cc1cc(CCCCCOc2ccc(C3=NCCO3)cc2)no1` [7(k), 3-{5-[4-(4,5-Dihydro-2-oxazolyl)phenoxy]pentyl}-5-methylisoxazole], the MIC with Polio 2 was 0.0012 µg/mL (≈ 0.00382 µM). Also, the MIC50 in data set [1] was determined as 1.3 µg/mL (≈ 4.14 µM). For the same compound, the IC (MIC80 of serotype panel) in data set [1] (read-out: Rhinovirus MIC80) came to 74.6 µg/mL. For the same compound, the responders at 100 mg/kg in data set [3] is 80%.

On to `Cc1cc(CCCCC(C)Oc2c(Cl)cc(C3=NCCO3)cc2Cl)on1` (centres unmarked) [Example 109, 5-{5-[2,6-Dichloro-4-(4,5-dihydro-2-oxazolyl)phenoxy]hexyl}-3-methylisoxazole], for which the MIC with Polio 2 is 2.9 µg/mL (≈ 7.3 µM). In addition, the MIC50 in data set [1] is 0.16 µg/mL (≈ 0.403 µM). In addition, the IC (MIC80 of serotype panel) in data set [1] (read-out: Rhinovirus MIC80) was 0.89 µg/mL. This compound also had a peak concentration (Cmax) in data set [2] of 2110 ± 610 ng/mL.

Turning to `Cc1cc(CCCCCOc2c(Cl)cc(C3=NCCO3)cc2Cl)on1` [5-{5-[2,6-Dichloro-4-(4,5-dihydro-2-oxazolyl)phenoxyl]-pentyl}-3-methylisoxazole], the MIC with Polio 2 is 0.59 µg/mL (≈ 1.54 µM). Moreover, the IC (MIC80 of serotype panel) in data set [1] (read-out: MIC80) stood at 0.23 µg/mL; in data set [1] (read-out: Rhinovirus MIC80), 0.126 µg/mL; with enteroviruses, 1.6 µg/mL. In addition, in data set [1], the MIC50 is 0.07 µg/mL (≈ 0.183 µM). The same compound came in with a Cmax in data set [2] of 1570 ± 350 ng/mL. Moreover, in data set [3], the responders at 50 mg/kg is 10%. Also, in data set [3], the responders at 100 mg/kg was 25%. For the same compound, the responders at 200 mg/kg in data set [3] is 30%. Moreover, the “oral activity in echovirus-9 infections” value in the data set on echovirus-9 is “potent oral activity”. Besides, the ED50 in the data set on coxsackie virus A-9 (Mus musculus, po, read-out: PD50) stood at 2.5 mg/kg. Also, the “oral activity in coxsackie virus A-9 infections” value with coxsackie virus A-9 (mouse infection model, oral) is “potent oral activity”.

In the case of `Cc1cc(CCCCCOc2c(Cl)cc(-c3nc(C)c(C)o3)cc2Cl)on1` [119(c), 5-{5-[2,6-Dichloro-4-(4,5-dimethyl-2-oxazolyl)phenoxy]pentyl}-3-methylisoxazole], the MIC50 in data set [1] was 0.32 µg/mL (≈ 0.782 µM). Also, in data set [1] (read-out: Rhinovirus MIC80), the IC (MIC80 of serotype panel) is 0.53 µg/mL. The same compound came in with a Cmax in data set [2] of 2130 ± 480 ng/mL.

Take `Cc1cc(CCCCCOc2ccc(C3=NCCO3)cc2)on1` [Example 2, 5-{5-[4-(4,5-Dihydro-2-oxazolyl)phenoxy]pentyl}-3-methylisoxazole]: the MIC with Polio 2 worked out at 0.6 µg/mL (≈ 1.91 µM). Moreover, the MIC50 in data set [1] came to 0.38 µg/mL (≈ 1.21 µM). The IC (MIC80 of serotype panel) in data set [1] (read-out: Rhinovirus MIC80) was 2.2 µg/mL. The responders at 77 mg/kg in data set [3] is 85%.

With `Cc1cc(CCCCCCCOc2ccc(C3=NCCO3)cc2)on1` [Example 1(c), 5-{7-[4-(4,5-Dihydro-2-oxazolyl)phenoxy]heptyl}-3-methylisoxazole], the MIC in the data set with Polio 2 is 0.04 µg/mL (≈ 0.117 µM). Besides, the MIC50 in data set [1] was 1.7 µg/mL (≈ 4.96 µM). The IC (MIC80 of serotype panel) in data set [1] (read-out: Rhinovirus MIC80) was 99 µg/mL. Also, in data set [3], the responders at 50 mg/kg was 70% and the responders at 100 mg/kg is 90%.

Usually Cmax stands for the maximum level reached in the sampled fluid or tissue.
